According to patent US20250263400A1, “GCN2 MODULATOR COMPOUNDS” (Alesta Therapeutics BV, priority 2022, published 2025):
pIC50: −log10 of the molar value.

Biological target: GCN2 (Homo sapiens (Human), UniProt Q9P2K8)
Experiment: GCN2 enzyme assay
Format: biochemical
Description: For GCN2 enzyme assays, testing compounds were prepared at proper concentrations in DMSO solution. IC50 values were calculated from a remaining activity using read conversion ratio.

Sequence of GCN2 (Q9P2K8 whole entry, species assumed): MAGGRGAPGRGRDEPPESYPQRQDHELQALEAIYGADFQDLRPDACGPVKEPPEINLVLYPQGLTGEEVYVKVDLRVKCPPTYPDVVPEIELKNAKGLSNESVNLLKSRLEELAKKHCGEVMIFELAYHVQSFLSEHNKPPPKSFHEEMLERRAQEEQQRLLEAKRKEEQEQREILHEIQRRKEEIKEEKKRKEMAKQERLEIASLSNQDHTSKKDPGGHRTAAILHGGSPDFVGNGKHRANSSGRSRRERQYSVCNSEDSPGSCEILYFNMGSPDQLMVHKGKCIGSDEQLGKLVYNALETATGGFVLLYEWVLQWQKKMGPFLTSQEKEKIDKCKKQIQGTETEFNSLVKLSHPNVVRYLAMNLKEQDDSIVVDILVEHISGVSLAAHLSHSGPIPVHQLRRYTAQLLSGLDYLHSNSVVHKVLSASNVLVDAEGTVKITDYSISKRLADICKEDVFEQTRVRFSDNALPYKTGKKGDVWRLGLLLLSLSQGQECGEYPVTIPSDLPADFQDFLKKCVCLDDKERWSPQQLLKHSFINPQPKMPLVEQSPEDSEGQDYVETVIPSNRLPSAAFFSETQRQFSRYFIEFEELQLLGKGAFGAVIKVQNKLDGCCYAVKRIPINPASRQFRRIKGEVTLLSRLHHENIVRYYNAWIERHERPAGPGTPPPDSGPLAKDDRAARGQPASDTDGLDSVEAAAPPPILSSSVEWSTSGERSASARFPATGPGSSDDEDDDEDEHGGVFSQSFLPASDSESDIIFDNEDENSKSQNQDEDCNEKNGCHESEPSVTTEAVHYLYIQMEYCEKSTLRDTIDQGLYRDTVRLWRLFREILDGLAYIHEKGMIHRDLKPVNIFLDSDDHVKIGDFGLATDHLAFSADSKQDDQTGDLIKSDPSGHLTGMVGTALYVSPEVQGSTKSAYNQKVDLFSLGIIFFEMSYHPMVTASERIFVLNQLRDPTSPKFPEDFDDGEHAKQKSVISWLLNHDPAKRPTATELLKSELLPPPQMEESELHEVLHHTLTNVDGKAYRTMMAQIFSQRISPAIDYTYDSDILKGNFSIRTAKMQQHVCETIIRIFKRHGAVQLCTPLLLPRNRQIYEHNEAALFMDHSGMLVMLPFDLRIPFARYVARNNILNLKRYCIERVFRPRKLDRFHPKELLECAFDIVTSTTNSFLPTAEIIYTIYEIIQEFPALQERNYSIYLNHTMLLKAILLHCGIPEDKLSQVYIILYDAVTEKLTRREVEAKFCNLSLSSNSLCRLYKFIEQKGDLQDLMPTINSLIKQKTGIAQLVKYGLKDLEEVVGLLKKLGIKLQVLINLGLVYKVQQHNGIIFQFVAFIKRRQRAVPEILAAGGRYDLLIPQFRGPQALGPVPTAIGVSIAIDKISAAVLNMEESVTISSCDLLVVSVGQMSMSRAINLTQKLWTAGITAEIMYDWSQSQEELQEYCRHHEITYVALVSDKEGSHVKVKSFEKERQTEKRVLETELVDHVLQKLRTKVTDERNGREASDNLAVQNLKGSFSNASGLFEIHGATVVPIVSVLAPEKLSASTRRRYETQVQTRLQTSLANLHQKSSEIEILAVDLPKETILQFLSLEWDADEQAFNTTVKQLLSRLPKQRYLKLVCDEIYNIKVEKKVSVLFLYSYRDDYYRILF

| SMILES | pIC50 |
| --- | --- |
| COCCNC(=O)[C@H]1CC[C@H](Nc2ncc3cc(-c4c(F)ccc(NS(=O)(=O)c5cc(Cl)cnc5OC)c4F)ccc3n2)CC1 [Compound 20, (1R,4R)-4-((6-(3-((5-chloro-2-methoxypyridine)-3-sulfonamido)-2,6-difluorophenyl)quina-zolin-2-yl)amino)-N-(2-methoxyethyl)cyclo-hexane-1-carboxamide] | 7.99 |
| COCCNC(=O)[C@H]1C[C@H](Nc2ncc3cc(-c4c(Cl)ccc(NS(=O)(=O)c5cc(Cl)cnc5OC)c4Cl)ccc3n2)CN1 [Compound 17, (2R,4S)-4-((6-(2,6-dichloro-3-((5-chloro-2-methoxypyridine)-3-sulfonamido)phenyl)quinazolin-2-yl)amino)-N-(2-methoxyethyl)pyr-rolidine-2-carboxamide] | 8.04 |
| COc1ncc(Cl)cc1S(=O)(=O)Nc1ccc(Cl)c(-c2ccc3nc(N[C@@H]4CC[C@@H](C(N)=O)C4)ncc3c2)c1Cl [Compound 16, (1R,3R)-3-((6-(2,6-dichloro-3-((5-chloro-2-methoxypyridine)-3-sulfonamido)phenyl)quinazolin-2-yl)amino)cyclopent-ane-1-carboxamide] | 7.93 |
| CCc1cc(-c2c(F)ccc(NS(=O)(=O)c3cc(Cl)cnc3OC)c2F)cc2cnc(N[C@@H]3CC[C@@H](C(=O)NCCOC)C3)nc12 [Compound 54, (1R,3R)-3-((6-(3-((5-chloro-2-methoxypyridine)-3-sulfonamido)-2,6-difluorophenyl)-8-ethylquinazolin-2-yl)amino)-N-(2-methoxyethyl)cyclo-pentane-1-carboxamide] | 7.46 |
| NC(=O)[C@@H]1CC[C@@H](Nc2ncc3cc(-c4c(F)ccc(NS(=O)(=O)c5cc(Cl)cc(CO)c5Cl)c4F)ccc3n2)C1 [Compound 11, (1R,3R)-3-((6-(3-((2,5-dichloro-3-(hydroxymethyl)phe-nyl)sulfonamido)-2,6-difluorophenyl)quina-zolin-2-yl)amino)cyclopent-ane-1-carboxamide] | 8.67 |
| CCc1cc(-c2c(F)ccc(NS(=O)(=O)c3cc(Cl)cnc3OC)c2F)cc2cnc(N[C@H]3CC[C@H](N(C)C)CC3)nc12 [Compound 57, 5-chloro-N-(3-(2-(((1R,4R)-4-(dimethylamino)cy-clohexyl)amino)-8-ethylquinazolin-6-yl)-2,4-difluorophenyl)-2-methoxypyridine-3-sulfonamide] | 8.40 |
| COCCNC(=O)N1CC[C@@H](Nc2ncc3cc(-c4c(F)ccc(NS(=O)(=O)c5cc(Cl)cnc5OC)c4F)ccc3n2)C1 [Compound 5, (R)-3-((6-(3-((5-chloro-2-methoxypyridine)-3-sulfonamido)-2,6-difluorophenyl)quina-zolin-2-yl)amino)-N-(2-methoxyethyl)pyr-rolidine-1-carboxamide] | 7.94 |

Second part, the molecule after the results:

| pIC50 | SMILES |
| --- | --- |
| 7.40 | CCc1cc(-c2c(F)ccc(NS(=O)(=O)c3ccccc3Cl)c2F)cc2cnc(N[C@H]3CC[C@H](N)CC3)nc12 [Compound 68, N-(3-(2-(((1R,4R)-4-aminocyclohexyl)amino)-8-ethylquinazolin-6-yl)-2,4-difluorophenyl)-2-chlorobenzenesulfon-amide] |
| 8.79 | COc1ncc(Cl)cc1S(=O)(=O)Nc1ccc(F)c(-c2ccc3nc(N[C@H]4CC[C@H](N)CC4)ncc3c2)c1F [Compound 62, N-(3-(2-(((1R,4R)-4-aminocyclohexyl)amino)quinazolin-6-yl)-2,4-difluorophenyl)-5-chloro-2-methoxypyridine-3-sulfonamide] |
| 6.91 | N[C@H]1CC[C@H](Nc2ncc3cc(-c4c(F)ccc(NS(=O)(=O)c5ccccc5Cl)c4F)ccc3n2)CC1 [Compound 71, N-(3-(2-(((1R,4R)-4-aminocyclohexyl)amino)quinazolin-6-yl)-2,4-difluorophenyl)-2-chlorobenzenesulfon-amide 2,2,2-trifluoroacetate] |
